Experimental data as given in patent US20240400586A1, “HETEROARYL DERIVATIVE PARP INHIBITOR AND USE THEREOF” (HAISCO PHARMACEUTICAL GROUP CO., LTD., priority 2021, published 2024).

Legend:
[1] = system: MDA-MB-436 subcutaneous transplanted tumor; experiment: Mouse MDA-MB-436 subcutaneous in vivo transplanted tumor model
Procedure: Human breast cancer MDA-MB-436 cells were placed in Leibovitz's L-15 medium (supplemented with 10 μg/mL insulin, 16 μg/mL glutathione, 10% fetal bovine serum and 1% double antibody) and cultured at 37° C. Conventional digestion treatment with trypsin was carried out twice a week for passage. When the cell saturation was 80%-90%, and the number reached the requirement, the cells were collected, counted, and inoculated. BALB/c nude mice (from Beijing Vital River Laboratory Animal Technology Co., Ltd.) were subcutaneously inoculated with 0.2 mL (10×10^6) of MDA-MB-436 cells (plus matrigel, with the volume ratio of 1:1) on the right back. When the average tumor volume reached about 180 mm^3, grouping and administration were performed (marked as Day 0). […] The administration frequency was once a day, the administration cycle was 29 days, and the drug withdrawal observation period was set to 14 days. After grouping, the tumor diameter was measured twice a week with a vernier caliper. The formula for calculating the tumor volume was: V=0.5×a×b^2, where a and b represented the long and short diameters of the tumor, respectively.

[2] = Pharmacokinetic test in rats; type: in vivo, rat; conditions: male SD rats
Procedure: • 1.1 Experimental animals: male SD rats, about 220 g, 6-8 weeks old, 6 rats/compound, purchased from Chengdu Ddossy Experimental Animals Co., Ltd. • 1.2 Experimental design: on the day of the test, 6 SD rats were randomly grouped according to their body weight; the animals were fasted with water available for 12 to 14 h one day before the administration, and were fed 4 h after the administration.
Before and after the administration, 0.15 mL of blood was taken from the orbit of the animals under isoflurane anesthesia and placed in an EDTAK2 centrifuge tube. The blood was centrifuged at 5000 rpm and 4° C. for 10 min to collect plasma. The blood collection time points for the intravenous administration group and intragastric administration group were: 0, 5 min, 15 min, 30 min, 1 h, 2 h, 4 h, 6 h, 8 h, and 24 h. Before analysis and detection, all samples were stored at −80° C. The samples were analyzed quantitatively by LC-MS/MS.

[3] = molecular target: PARP5B (Homo sapiens (Human), UniProt Q9H2K2); experiment: PARP5B enzyme activity test; type: biochemical
Chain of PARP5B (Q9H2K2 667-1166 limits assumed): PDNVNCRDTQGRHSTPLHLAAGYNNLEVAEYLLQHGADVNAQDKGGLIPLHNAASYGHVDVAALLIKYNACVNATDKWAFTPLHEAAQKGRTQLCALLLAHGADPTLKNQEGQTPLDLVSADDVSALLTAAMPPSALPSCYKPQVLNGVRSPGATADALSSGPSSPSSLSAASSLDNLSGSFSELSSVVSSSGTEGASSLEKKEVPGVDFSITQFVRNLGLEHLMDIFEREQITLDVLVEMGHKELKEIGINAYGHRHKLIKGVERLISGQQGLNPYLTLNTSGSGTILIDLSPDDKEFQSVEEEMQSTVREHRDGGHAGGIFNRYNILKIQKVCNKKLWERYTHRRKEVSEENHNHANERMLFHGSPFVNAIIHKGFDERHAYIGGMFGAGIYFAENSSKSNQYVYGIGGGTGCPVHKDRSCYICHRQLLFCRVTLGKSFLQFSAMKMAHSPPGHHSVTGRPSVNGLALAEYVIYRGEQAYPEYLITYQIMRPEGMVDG
Procedure: (§2) PARP2, PARP5A, PARP5B, PARP6, PARP7, PARP14 and PARP15 chemical fluorescence detection kits were purchased from BPS Bioscience. The histone solution in the kit was diluted 5× with 1×PBS, and 25 μL of the diluted histone solution was added to a microwell plate and incubated overnight at 4° C. After the incubation, the plate was washed three times with PBST (0.05% Tween-20). 100 μL of the blocking solution was added to the microwell plate and incubated at 25° C. for 90 minutes. After the incubation, the plate was washed three times with PBST. […] 5 μL of the diluted PARP enzyme was added to the microwell plate, and the reaction system was incubated at 25° C. for 60 minutes.
(§3) After the incubation, the plate was washed three times with PBST. Streptavidin-HRP was diluted 50× with a blocking solution, and 25 μL of the diluent was added to the microwell plate and incubated at 25° C. for 30 minutes. After the incubation, the plate was washed three times with PBST. ELISA ECL substrate A and substrate B were mixed at a ratio of 1:1 (v/v), 25 μL of the mixture was added to the microwell plate, and the chemiluminescence value was read.
(§4) Curve fitting was performed by four parameters (log(inhibitor) vs. response—Variable slope) using GraphPad Prism software, and the IC50 value was calculated.

[4] = system: Human breast cancer MDA-MB-231 cells; experiment: MDA-MB-231 cell proliferation inhibition test (CellTiter-Glo, 7 days); type: cell-based; conditions: MDA-MB-231, 168 h, 7 days incubation
Procedure: (§1) The cells in the exponential growth phase were collected, and the cell suspension was adjusted to 1500 cells/135 μL with the culture medium. 135 μL of the cell suspension was added to each well of a 96-well cell culture plate and incubated overnight. On day 2, compounds at different concentrations were added, and the plate was placed in the incubator and incubated for 7 days. After the incubation was completed, according to operation instructions for a CellTiter-Glo kit (Promega, Cat #G7573), 75 μL of CTG solution, which was already pre-melted and equilibrated to room temperature, was added to each well, and the mixture was uniformly mixed for 2 min using a microplate shaker. The plate was placed at room temperature for 10 min, and then […] signal values were measured using an Envision 2104 plate reader (PerkinElmer).

[5] = system: breast tumor cells MDA-MB-436; experiment: MDA-MB-436 cell activity test (CellTiter-Glo, 7 days); type: cell-based; conditions: Homo sapiens, MDA-MB-436, 168 h, 7 days incubation; for inhibition at 10 µM: read-out: MDA-MB-436 Max inh. % 10 μM; for IC50: read-out: MDA-MB-436 cell inhibitory activity IC50
Procedure: as §1, with “Breast tumor cells MDA-MB-436 were purchased from ATCC, the culture medium was Leibovitz's L-15+10% FBS, and the cells were cultured in a CO2-free incubator at 37° C. On day 1, the cells” for “The cells”, “to 4000” for “to 1500”, “(Promega, G7573),” for “(Promega, Cat #G7573),”, “an Envision2104” for “an Envision 2104”, “(PerkinElmer). The inhibition rate was calculated using formula (1), where RLUcompound was the readout of the drug treated group, RLUcontrol was the average value of the vehicle control group, and RLUblank was the average value of the cell-free well. The IC50 value was calculated using GraphPad Prism software.” for “(PerkinElmer).”

[6] = molecular target: PARP7 (Homo sapiens (Human), UniProt Q7Z3E1); experiment: PARP7 enzyme activity test; type: biochemical
Chain of PARP7 (Q7Z3E1 whole entry): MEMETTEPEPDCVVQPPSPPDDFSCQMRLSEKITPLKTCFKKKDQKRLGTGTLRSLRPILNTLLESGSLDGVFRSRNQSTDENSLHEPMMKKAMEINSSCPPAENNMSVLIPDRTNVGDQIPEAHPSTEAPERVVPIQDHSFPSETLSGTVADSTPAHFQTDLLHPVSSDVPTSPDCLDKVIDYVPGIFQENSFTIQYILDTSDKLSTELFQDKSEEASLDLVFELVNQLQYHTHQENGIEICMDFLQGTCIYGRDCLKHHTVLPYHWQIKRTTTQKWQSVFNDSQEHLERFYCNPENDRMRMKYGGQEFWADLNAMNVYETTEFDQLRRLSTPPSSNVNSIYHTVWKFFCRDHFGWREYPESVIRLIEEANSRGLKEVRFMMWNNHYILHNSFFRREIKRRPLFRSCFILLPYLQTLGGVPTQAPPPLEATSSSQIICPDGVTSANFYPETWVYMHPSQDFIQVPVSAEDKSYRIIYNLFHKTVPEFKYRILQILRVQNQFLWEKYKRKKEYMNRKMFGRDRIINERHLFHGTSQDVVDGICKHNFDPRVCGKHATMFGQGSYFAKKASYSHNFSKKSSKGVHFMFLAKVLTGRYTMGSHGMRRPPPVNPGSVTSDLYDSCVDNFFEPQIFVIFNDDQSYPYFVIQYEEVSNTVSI
Procedure: as §2, §3, §4

[7] = molecular target: PARP5A (Homo sapiens (Human), UniProt O95271); experiment: PARP5A enzyme activity test; type: biochemical
Chain of PARP5A (O95271 1001-1327 limits assumed): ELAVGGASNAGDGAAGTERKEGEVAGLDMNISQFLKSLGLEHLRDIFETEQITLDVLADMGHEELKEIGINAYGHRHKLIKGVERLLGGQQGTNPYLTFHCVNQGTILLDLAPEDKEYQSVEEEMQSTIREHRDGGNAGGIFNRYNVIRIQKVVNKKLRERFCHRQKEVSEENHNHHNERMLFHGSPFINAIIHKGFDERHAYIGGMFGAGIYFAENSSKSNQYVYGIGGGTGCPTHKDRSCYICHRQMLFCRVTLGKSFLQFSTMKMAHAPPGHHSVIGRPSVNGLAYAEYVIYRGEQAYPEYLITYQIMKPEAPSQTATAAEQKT
Procedure: as §2, §3, §4

[8] = molecular target: PARP15 (Homo sapiens (Human), UniProt Q460N3); experiment: PARP15 enzyme activity test; type: biochemical
Chain of PARP15 (Q460N3 whole entry): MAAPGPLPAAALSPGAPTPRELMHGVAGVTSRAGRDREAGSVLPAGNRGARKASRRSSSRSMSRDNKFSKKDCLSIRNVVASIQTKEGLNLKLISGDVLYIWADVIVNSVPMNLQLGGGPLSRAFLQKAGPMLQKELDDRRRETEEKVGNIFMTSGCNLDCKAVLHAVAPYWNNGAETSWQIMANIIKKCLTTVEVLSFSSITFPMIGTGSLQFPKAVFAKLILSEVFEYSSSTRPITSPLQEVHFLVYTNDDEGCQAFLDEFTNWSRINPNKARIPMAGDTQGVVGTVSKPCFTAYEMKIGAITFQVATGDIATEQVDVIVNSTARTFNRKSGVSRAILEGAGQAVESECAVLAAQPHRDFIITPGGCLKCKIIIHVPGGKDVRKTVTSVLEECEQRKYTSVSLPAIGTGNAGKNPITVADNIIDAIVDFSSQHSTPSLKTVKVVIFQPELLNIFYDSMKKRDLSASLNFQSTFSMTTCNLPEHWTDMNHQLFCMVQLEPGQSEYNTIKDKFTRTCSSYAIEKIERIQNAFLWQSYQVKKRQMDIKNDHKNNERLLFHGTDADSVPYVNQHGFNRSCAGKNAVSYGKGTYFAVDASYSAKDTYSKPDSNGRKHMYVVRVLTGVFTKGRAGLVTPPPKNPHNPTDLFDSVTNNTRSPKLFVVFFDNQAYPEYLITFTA
Procedure: as §2, §3, §4

[9] = molecular target: PARP-1 enzyme (Homo sapiens (Human), UniProt P09874); experiment: PARP1 enzyme activity test (BPS Bioscience chemiluminescence kit); type: biochemical
Chain of PARP-1 enzyme (P09874 whole entry): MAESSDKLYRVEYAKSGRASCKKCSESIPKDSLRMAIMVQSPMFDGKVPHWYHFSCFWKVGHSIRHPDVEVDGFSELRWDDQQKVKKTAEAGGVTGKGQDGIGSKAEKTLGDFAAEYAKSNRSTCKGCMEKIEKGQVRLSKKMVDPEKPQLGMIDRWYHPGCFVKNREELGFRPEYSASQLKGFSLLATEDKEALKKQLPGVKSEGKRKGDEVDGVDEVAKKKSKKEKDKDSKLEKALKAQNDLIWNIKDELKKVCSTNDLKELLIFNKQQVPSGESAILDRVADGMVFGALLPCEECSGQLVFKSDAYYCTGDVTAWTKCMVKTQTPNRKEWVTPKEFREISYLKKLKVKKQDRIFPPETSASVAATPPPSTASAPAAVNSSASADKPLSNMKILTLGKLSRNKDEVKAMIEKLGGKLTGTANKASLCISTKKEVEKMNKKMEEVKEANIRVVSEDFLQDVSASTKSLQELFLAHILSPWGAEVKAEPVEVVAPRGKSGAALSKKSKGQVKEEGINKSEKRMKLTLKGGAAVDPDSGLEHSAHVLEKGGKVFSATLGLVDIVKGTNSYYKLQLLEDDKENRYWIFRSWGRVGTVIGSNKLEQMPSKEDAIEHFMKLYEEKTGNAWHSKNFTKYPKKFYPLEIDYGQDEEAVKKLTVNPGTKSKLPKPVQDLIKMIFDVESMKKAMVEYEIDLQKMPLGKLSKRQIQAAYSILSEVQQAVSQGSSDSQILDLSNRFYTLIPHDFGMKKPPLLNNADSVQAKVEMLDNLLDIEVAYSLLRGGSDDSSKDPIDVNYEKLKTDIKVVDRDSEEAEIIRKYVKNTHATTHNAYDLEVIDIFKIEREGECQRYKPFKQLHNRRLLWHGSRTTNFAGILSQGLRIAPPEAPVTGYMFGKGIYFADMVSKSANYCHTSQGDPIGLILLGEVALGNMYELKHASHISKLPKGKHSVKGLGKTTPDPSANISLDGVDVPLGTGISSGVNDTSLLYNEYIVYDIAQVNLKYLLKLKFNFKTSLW
Excerpt: Inhibition %=(1−(RLUsample−RLUmin)/(RLUmax−RLUmin))×100% (formula 1)

[10] = Sprague-Dawley (SD), rat, iv, i.v. 2.5 mg/kg, plasma

SMILES	IC50 [5] [nM]	IC50 [9] [nM]	inhibition at 10 µM [5] [%]	further results
CCc1cc2ncc(CN3CCN(c4ccc(C(=O)NC5CC5)nc4)CC3)cc2[nH]c1=O [Compound 4, N-cyclopropyl-5-(4-((7-ethyl-6-oxo-5,6-dihydro-1,5-naphthyridin-3-yl)methyl)piperazin-1-yl)picolinamide]	2	–	89.4	tumor growth after the drug withdrawal ([1]; 14 days drug withdrawal observation period): did not grow again; body weight of the animals ([1]; BALB/c nude mice, once a day, Day 0-10: 1 mg/kg, Day 11-28: 0.1 mg/kg): no significant decrease in the body weight; TGI ([1]; BALB/c nude mice, once a day, Day 0-10: 1 mg/kg, Day 11-28: 0.1 mg/kg, after 28 days of administration): 119%; AUC(0-t) [2, 10]: 46.6 ± 4.75 µg·h/mL; clearance [2, 10]: 0.896 ± 0.097 mL/min/kg; Vd ([2]; Sprague-Dawley (SD), rat, iv, i.v. 2.5 mg/kg, plasma, read-out: Vdss): 0.236 ± 0.022 L/kg; AUC(0-t) ([2]; Sprague-Dawley (SD), rat, po, i.g. 10 mg/kg, plasma): 184 ± 72.3 µg·h/mL; F ([2]; i.g. 10 mg/kg): 98.8 ± 39%; IC50 [3]: 576 nM; inhibition at 10 µM ([4]; 10 μM, read-out: MDA-MB-231 Max inh. % 10 μM): 66.8%; IC50 ([4]; BRCA WT cells, read-out: MDA-MB-231 cell inhibitory activity IC50): 15900 nM; IC50 [6]: 5360 nM; IC50 [7]: 6080 nM; IC50 [8]: 4300 nM
CCc1cc2ncc(CN3CCN(c4ccc(NC(=O)C5CC5)nc4)CC3)cc2[nH]c1=O [Compound 9, N-(5-(4-((7-ethyl-6-oxo-5,6-dihydro-1,5-naphthyridin-3-yl)methyl)piperazin-1-yl)pyridin-2-yl)cyclopropanecarboxamide]	6	0.73	86.2	–
CCc1cc2ncc(CN3CCN(c4ccc(C(=O)NC5CCC5)nc4)CC3)cc2[nH]c1=O [Compound 10, N-cyclobutyl-5-(4-((7-ethyl-6-oxo-5,6-dihydro-1,5-naphthyridin-3-yl)methyl)piperazin-1-yl)picolinamide]	17	0.56	94.2	–
CCc1cc2ncc(CN3CCN(c4ccc(C(=O)NC5CC(F)(F)C5)nc4)CC3)cc2[nH]c1=O [Compound 25, N-(3,3-difluorocyclobutyl)-5-(4-((7-ethyl-6-oxo-5,6-dihydro-1,5-naphthyridin-3-yl)methyl)piperazin-1-yl)picolinamide]	16	0.88	99	–
CCc1cc2ncc(CN3CCN(c4ccc(NC(=O)C5CC(F)(F)C5)nc4)CC3)cc2[nH]c1=O [Compound 26, N-(5-(4-((7-ethyl-6-oxo-5,6-dihydro-1,5-naphthyridin-3-yl)methyl)piperazin-1-yl)pyridin-2-yl)-3,3-difluorocyclobutane-1-carboxamide]	18	0.48	86.3	–
CCc1cc2ncc(CN3CCN(c4ccc(NC(=O)OC5CC5)nc4)CC3)cc2[nH]c1=O [Compound 37, Cyclopropyl(5-(4-((7-ethyl-6-oxo-5,6-dihydro-1,5-naphthyridin-3-yl)methyl)piperazin-1-yl)pyridin-2-yl)carbamate]	18.9	0.96	93.7	–
CCc1cc2ncc(CN3CCN(c4ccc(C(=O)NC5CC6(CCC6)C5)nc4)CC3)cc2[nH]c1=O [Compound 38, 5-(4-((7-ethyl-6-oxo-5,6-dihydro-1,5-naphthyridin-3-yl)methyl)piperazin-1-yl)-N-(spiro[3.3]heptan-2-yl)picolinamide]	17.6	0.7	98.8	–
CCc1cc2ncc(CN3CCN(c4ccc(-c5nnc(C)[nH]5)nc4)CC3)cc2[nH]c1=O [Compound 42, 3-ethyl-7-((4-(6-(5-methyl-4H-1,2,4-triazol-3-yl)pyridin-3-yl)piperazin-1-yl)methyl)-1,5-naphthyridin-2 (1H)-one]	24.1	0.67	84.1	–

More lines, main results first:

IC50 [5] [nM]	IC50 [9] [nM]	SMILES	inhibition at 10 µM [5] [%]	further results
6	0.54	CCc1cc2ncc(CN3CCN(c4ccc(C(=O)N[C@@H]5C[C@@H]5F)nc4)CC3)cc2[nH]c1=O [Compound 11, 5-(4-((7-ethyl-6-oxo-5,6-dihydro-1,5-naphthyridin-3-yl)methyl)piperazin-1-yl)-N-((1R,2S)-2-fluorocyclopropyl)picolinamide]	85.2	–
12	0.51	CCc1cc2ncc(CN3CCN(c4ccc(C(=O)NC5CNC5)nc4)CC3)cc2[nH]c1=O [Compound 22, N-(azetidin-3-yl)-5-(4-((7-ethyl-6-oxo-5,6-dihydro-1,5-naphthyridin-3-yl)methyl)piperazin-1-yl)picolinamide]	89.4	–
1.4	0.67	CCc1cc2ncc(CN3CCN(c4ccc(C(=O)Nc5cnn(C)c5)nc4)CC3)cc2[nH]c1=O [Compound 23, 5-(4-((7-ethyl-6-oxo-5,6-dihydro-1,5-naphthyridin-3-yl)methyl)piperazin-1-yl)-N-(1-methyl-1H-pyrazol-4-yl)picolinamide]	84.2	–
9	0.73	CCc1cc2ncc(CN3CCN(c4ccc(C(=O)NCCOC)nc4)CC3)cc2[nH]c1=O [Compound 24, 5-(4-((7-ethyl-6-oxo-5,6-dihydro-1,5-naphthyridin-3-yl)methyl)piperazin-1-yl)-N-(2-methoxyethyl)picolinamide]	82.3	–
3.1	0.74	CCc1cc2ncc(CN3CCN(c4ccc(NC(=O)c5cnn(C)c5)nc4)CC3)cc2[nH]c1=O [Compound 33, N-(5-(4-((7-ethyl-6-oxo-5,6-dihydro-1,5-naphthyridin-3-yl)methyl)piperazin-1-yl)pyridin-2-yl)-1-methyl-1H-pyrazole-4-carboxamide]	90	–
1.2	0.77	CCc1cc2ncc(CN3CCN(c4ccc(C(=O)NC56CC(C5)C6)nc4)CC3)cc2[nH]c1=O [Compound 39, N-(bicyclo[1.1.1]pentan-1-yl)-5-(4-((7-ethyl-6-oxo-5,6-dihydro-1,5-naphthyridin-3-yl)methyl)piperazin-1-yl)picolinamide]	99.1	–
5.6	0.61	CCc1cc2ncc(CN3CCN(c4ccc(C(=O)NCC5CC5)nc4)CC3)cc2[nH]c1=O [Compound 40, N-(cyclopropylmethyl)-5-(4-((7-ethyl-6-oxo-5,6-dihydro-1,5-naphthyridin-3-yl)methyl)piperazin-1-yl)picolinamide]	99.3	–
2.3	0.84	CCc1cc2ncc(CN3CCN(c4ccc(C(=O)N[C@H]5C[C@H]5F)nc4)CC3)cc2[nH]c1=O [Compound 41, 5-(4-((7-ethyl-6-oxo-5,6-dihydro-1,5-naphthyridin-3-yl)methyl)piperazin-1-yl)-N-((1S,2R)-2-fluorocyclopropyl)picolinamide]	92.1	–
